# “Also recorded” adds a separate entry of the source. Where a SMILES comes first, the peptide text is derived from it. [ ]: non-standard residue; d: D form.
# Assays:
# [1] = Noise trauma, hearing threshold shifts by auditory brainstem response; type: in vivo, guinea pigs
# Experimental: D-TAT-IB1(s) was applied onto the round window membrane of the cochlea of 3 groups of guinea pigs (each group with 6 animals) in 2 microliters of a gel formulation of 2.6% buffered hyaluronic acid (Hylumed, Genzyme Corp.) at a concentration of 100 µM either 30 minutes before noise trauma (120 dB at 6 kHz during 30 minutes) or 30 minutes or 4 hours thereafter. Untreated ears served as control. Hearing threshold shifts were evaluated by auditory brainstem response measurements 20 minutes after noise trauma (temporary threshold shift, TTS) and 15 days following the trauma (permanent threshold shift, PTS). […] Thus, D-TAT-IB1 (s) is a very effective otoprotective compound in case of noise trauma.
# [2] = Focal cerebral ischemia, permanent MCAO model, lesion volume; type: in vivo, 12-days-old rats
# Excerpt: Focal cerebral ischemia was induced in 12-days-old rats. Pups were anesthetized in an induction chamber with 2% isoflurane and during the operation anaesthesia was maintained using a mask under 2% isoflurane. MCAO was induced by electrocoagulating a main branch of the middle cerebral artery (MCA). Rats were placed on the right side, and an oblique dermal incision was made between the ear and eye. After excision of the temporal muscle, the cranial bone was removed from the frontal suture to a level below the zygomatic arch. […] The cranial skin incision was then closed. Rat pups were then placed in an incubator maintained at 37° C. until they awoke, and were then transferred to their mother.
# 6 hours later an inventive chimeric D-TAT-IB1(s) peptide according to SEQ ID NO: 11 was injected intraperitoneally. 24 hours after the coagulation, the rats were anesthetized with chloral hydrate and perfused through the ascending aorta with 4% paraformaldehyde in PBS. Brains were then removed and kept for 2 hours in the same fixative solution, and placed in a gradient of 30% sucrose in PBS for about 15 hours at 4° C. Brains were frozen in isopentane (−40° C.) and stored at −20° C. Coronal cryostat sections of 50 µm were collected on glass slides. The sections were stained with cresyl violet. Each tenth section was analyzed and the total volume of the lesion was calculated using the Neuroleucida programme. In the control group A, the mean lesion volume was 21.47 mm^3. […] A significant statistic difference is observed between group A and groups C, E and F (one-tailed t-test, p=0.030, p=0.002, p=0.001 respectively).
# [3] = system: βTC-3 cells; experiment: IL-1β induced pancreatic β-cell death, peptide treatment, propidium iodide / Hoechst 33342 staining; type: cell-based; details: one single addition 1 μM, IL-1β 10 ng/ml every two days, 15 days
# Experimental: We investigated the effects of the inventive L-TAT-IB(s) peptides on the promotion of β-cell apoptosis elicited by IL-1. βTC-3 cell cultures were incubated for 30 minutes with 1 μM of inventive L-TAT-IB1(s) peptides followed by 10 ng/mL of IL-1. A second addition of peptide (1 μM) was performed 24 hours later. Apoptotic cells were counted after two days of incubation with IL-1 β using propidium iodide (red stained cell are dead cells) and Hoechst 33342 (blue stained cell are cells with intact plasma membrane) nuclear staining.
# Long term inhibition of IL-1 induced cells death was examined by treating βTC-3 cells as described above, except that incubation of the cells with the peptides and IL-1 β was sustained for 12 days. Additional peptides (1 μM) were added each day and additional IL-1 β (10 ng/mL) was added every 2 days. […] Taken together, these experiments provide evidence that inventive TAT-IB(s) peptides are biologically active molecules able to prevent the effects of JNK signaling on cell fate.
# Inhibition of IL-1 β induced pancreatic β-cell death by the inventive D-TAT-IB1(s) peptide was analyzed. βTC-3 cells were incubated as described above for 30 minutes with one single addition of the indicated peptides (1, μM), then IL-1 (10 ng/ml) was added.
# Apoptotic cells were then counted after two days of incubation with IL-1 β by use of Propidium Iodide and Hoechst 33342 nuclear staining. A minimum of 1,000 cells were counted for each experiment. Standard Error of the Means (SEM) are indicated, n=5.
# Long term inhibition of IL-1P induced cell-death by the D-TAT-IB1 peptide was also analyzed. βTC-3 cells were incubated as above for 30 minutes with one single addition of the indicated peptides (1 μM), then IL-1 β (10 ng/ml) was added, followed by addition of the cytokine every two days. Apoptotic cells were then counted after 15 days of incubation with IL-1 by use of propidium iodide and Hoechst 33342 nuclear staining. […] A minimum of 1.000 cells were counted for each experiment.
# [4] = system: cortical neuronal culture; experiment: LDH release from cortical neuronal cultures following NMDA stimulation; type: cell-based, rat; details: 5 μM pre-treatment 30 min, 100 μM NMDA, 12 h
# Experimental: The neuroprotective effect of the D-TAT-IB (generic)(s)/D-JNKI1 peptide (SEQ ID NO: 12) was evaluated in sister cultures pre-treated for 30 min with the indicated concentrations of peptides or MK-801 before continuous exposure to 100 μM NMDA.
# Cortical neuronal culture. We dissected small pieces of cortex from the brains of two day old rat pups, incubated them with 200 units of papain for 30 min at 34° C., and then plated the neurons at densities of approximately 1×10^6 cells/plate on dishes pre-coated with 100 μg/ml poly-D-lysine. The plating medium consisted of B27/Neurobasal (Life Technologies, Gaithersburg, Md.) supplemented with 0.5 mM glutamine, 100 U/ml penicillin and 100 ug/ml streptomycin.
# Lactate dehydrogenate (LDH) cytotoxicity assay. LDH released into the bathing medium 12, 24 and 48 h after NMDA administration was measured using the Cytotox 96 non-radioactive cytotoxicity assay kit (Promega, Wis.) (see FIG. 5).
# [5] = system: βTC-3 cell cultures; type: cell-based
# Experimental: The ability of the L- and D-enantiomeric forms of TAT and inventive TAT-IB1(s) peptides (“TAT-IB peptides”) to enter cells was evaluated. L-TAT, D-TAT, inventive L-TAT-IB1(s), and inventive D-TAT-IB1(s) peptides [SEQ ID NOs: 5, 6, 9 and 12, respectively] were labeled by N-terminal addition of a glycine residue conjugated to fluorescein. Labeled peptides (1 μM) were added to βTC-3 cell cultures, which were maintained as described in Example 3. At predetermined times cells were washed with PBS and fixed for five minutes in ice-cold methanol-acetone (1:1) before being examined under a fluorescence microscope. Fluorescein-labeled BSA (1 μM, 12 moles/mole BSA) was used as a control.
# Little to no signal was present at 48 hours.
# Fluorescent signals from these all-D retro-inverso peptides were still very strong 1 week later, and the signal was only slightly diminished at 2 weeks post treatment.
compound,measurement,setting,value
CC(C)C[C@@H](NC(=O)[C@@H](Cc1ccccc1)NC(=O)[C@H]1CCCN1C(=O)[C@@H](CCC(N)=O)NC(=O)[C@H](NC(=O)[C@H]1CCCN1C(=O)[C@@H](CCCNC(=N)N)NC(=O)[C@@H](CO)NC(=O)[C@@H](CCC(N)=O)NC(=O)[C@H](N)CC(=O)O)C(C)C)C(=O)N[C@H](CC(N)=O)C(=O)N[C@H](CC(C)C)C(=O)N[C@@H](C(=O)N[C@@H](C(=O)N1CCC[C@@H]1C(=O)N[C@H](CCCNC(=N)N)C(=O)N[C@H](CCCCN)C(=O)N1CCC[C@@H]1C(=O)N[C@H](CCCNC(=N)N)C(=O)N1CCC[C@@H]1C(=O)N1CCC[C@@H]1C(=O)N[C@H](CCCNC(=N)N)C(=O)N[C@H](CCCNC(=N)N)C(=O)N[C@H](CCCNC(=N)N)C(=O)N[C@H](CCC(N)=O)C(=O)N[C@H](CCCNC(=N)N)C(=O)N[C@H](CCCNC(=N)N)C(=O)N[C@H](CCCCN)C(=O)N[C@H](CCCCN)C(=O)N[C@H](CCCNC(=N)N)C(=O)NCC(=O)O)[C@H](C)O)[C@H](C)O [D-TAT-IB1(s)] (H-[dD][dQ][dS][dR][dP][dV][dQ][dP][dF][dL][dN][dL][dT][dT][dP][dR][dK][dP][dR][dP][dP][dR][dR][dR][dQ][dR][dR][dK][dK][dR]G-OH),"protection against permanent hearing loss (PTS, 15 days)","[1]; 100 μM in hyaluronic acid gel on round window membrane 30 minutes before noise trauma (120 dB at 6 kHz, 30 minutes)",protects substantially against permanent hearing loss from noise trauma if applied preventively before the noise exposure
same,"permanent threshold shift (PTS, 15 days) versus untreated control ears",[1]; 100 μM in hyaluronic acid gel on round window membrane 30 minutes or 4 hours after noise trauma,significantly lower; also recorded: protected against permanent hearing loss even if applied after exposure to excessive noise
same,dependence of the protective effect on time of administration after noise trauma,[1]; 30 minutes versus 4 hours after trauma,in a time-dependent fashion if administered after trauma; also recorded: stronger the earlier
same,mean lesion volume of all treated groups versus control group,[2]; control group mean 21.47 mm^3,lower mean than the control group
same,cerebral protection (lesion volume) compared to saline group,"[2]; doses 1 mg/kg, 0.003 mg/kg and 0.0003",not large enough to reach a significant difference
same,dose of best protection,[2]; i.p. 6 hours after MCAO,0.03 mg/kg
same,cerebral protection (lesion volume),"[2]; i.p. 6 hours after MCAO, doses 11 mg/kg, 3 mg/kg, 0.3 mg/kg and 0.03 mg/kg, 24 hours after coagulation",contributes to a cerebral protection
same,long term inhibition of IL-1β induced cell-death,[3],able to confer long term (15 day) protection
same,degenerative changes due to NMDA exposure (LDH release above controls),[4],completely inhibited
same,"morphological appearance, number and distribution of the neurons",[4],indistinguishable from the controls
same,stability inside the cells,[5],extremely stable inside the cells

# Reference: patent publication US8080517B2, “Cell-permeable peptide inhibitors of the JNK signal transduction pathway” (Xigen SA, priority 2005, dated 2011)
